Experimental data: PubChem BioAssay AID330 (DTP/NCI, 2004)
Values joined by “and” are separate entries in the source; they are usually repeats but may differ in a detail not shown here. Identical values can stand only once. Toxic doses and inconclusive results are not listed.

Tested on: P388 leukemia ip, CD2F1 mice, survival T/C
Experiment: NCI In Vivo Anticancer Drug Screen. Data for tumor model P388 Leukemia (intraperitoneal) in CD2F1 (CDF1) mice
Conditions: endpoint: median survival time, higher = longer survival
In short: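 Mice carrying the transplanted tumor received test compound or vehicle. Survival was recorded in each group, and the value is the treated-group measurement divided by that of the vehicle-treated control group.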

[1] = dose: 25.0 mg/kg/injection, schedule: Q01DX005 (ip), vehicle: Klucel (hydroxypropylcellulose) (HPC)
[2] = dose: 60.0 mg/kg/injection, schedule: Q01DX005 (ip), vehicle: saline with Tween-80
[3] = dose: 50.0 mg/kg/injection, schedule: Q01DX009 (ip), vehicle: saline with Tween-80
[4] = dose: 100.0 mg/kg/injection, schedule: Q01DX009 (ip), vehicle: saline with Tween-80
[5] = dose: 200.0 mg/kg/injection, schedule: Q01DX009 (ip), vehicle: saline with Tween-80
[6] = dose: 50.0 mg/kg/injection, schedule: Q01DX005 (ip), vehicle: Klucel (hydroxypropylcellulose) (HPC)
[7] = dose: 100.0 mg/kg/injection, schedule: Q01DX005 (ip), vehicle: Klucel (hydroxypropylcellulose) (HPC)
[8] = dose: 50.0 mg/kg/injection, schedule: Q01DX005 (ip), vehicle: saline with Tween-80
[9] = dose: 100.0 mg/kg/injection, schedule: Q01DX005 (ip), vehicle: saline with Tween-80

## Cc1cc2c(-c3ccccc3)c3cc(C)c(N)cc3nc2cc1N
dose: 6.25 mg/kg/injection, schedule: Q01DX005 (ip), vehicle: Klucel (hydroxypropylcellulose) (HPC)
  T/C: 101 % of control
dose: 12.5 mg/kg/injection, schedule: Q01DX005 (ip), vehicle: Klucel (hydroxypropylcellulose) (HPC)
  T/C: 100 % of control
[1]
  T/C: 99 % of control

## CC(C)(C)C(=O)CC(=O)C(F)(F)C(F)(F)C(F)(F)F.CC(C)(C)C(=O)CC(=O)C(F)(F)C(F)(F)C(F)(F)F.CC(C)(C)C(=O)CC(=O)C(F)(F)C(F)(F)C(F)(F)F.[Gd]
[2]
  T/C: 105 % of control
dose: 120.0 mg/kg/injection, schedule: Q01DX005 (ip), vehicle: saline with Tween-80
  T/C: 110 % of control
dose: 240.0 mg/kg/injection, schedule: Q01DX005 (ip), vehicle: saline with Tween-80
  T/C: 105 % of control

## CCCCC(N)P(=O)(O)O (centres undefined)
dose: 12.5 mg/kg/injection, schedule: Q01DX009 (ip), vehicle: saline
  T/C: 87 % of control
dose: 25.0 mg/kg/injection, schedule: Q01DX009 (ip), vehicle: saline
  T/C: 92 % of control
dose: 50.0 mg/kg/injection, schedule: Q01DX009 (ip), vehicle: saline
  T/C: 86 % of control
dose: 100.0 mg/kg/injection, schedule: Q01DX009 (ip), vehicle: saline
  T/C: 97 % of control

## O=C(O)c1oc2ccccc2c1/C=C/c1ccccc1
[3]
  T/C: 100 % of control
[4]
  T/C: 97 % of control
[5]
  T/C: 100 % of control

## CSC(C)(C(=N)C#N)N(C)C (centres undefined)
dose: 12.5 mg/kg/injection, schedule: Q04DX003 (ip), vehicle: saline
  T/C: 103 % of control
dose: 25.0 mg/kg/injection, schedule: Q04DX003 (ip), vehicle: saline
  T/C: 100 % of control
dose: 50.0 mg/kg/injection, schedule: Q04DX003 (ip), vehicle: saline
  T/C: 104 % of control

## O=C(Nc1cccc2c(O)c(N=Nc3ccc(S(=O)(=O)Nc4nccs4)cc3)cc(N=Nc3ccc(S(=O)(=O)Nc4nccs4)cc3)c12)C(Cl)Cl
[3]
  T/C: 102 % of control
[4]
  T/C: 106 % of control
[5]
  T/C: 98 % of control

## O[O][Sn][c]1ccccc1
[3]
  T/C: 100 % of control
[4]
  T/C: 100 % of control
[5]
  T/C: 86 % of control

## N#Cc1cc2cc3c4c(c2oc1=O)CCCN4CCC3
[6]
  T/C: 95 % of control
[7]
  T/C: 94 % of control
dose: 200.0 mg/kg/injection, schedule: Q01DX005 (ip), vehicle: Klucel (hydroxypropylcellulose) (HPC)
  T/C: 95 % of control

## [N-]=[N+]=NC12CC3CC4C5CC(CC41)CC2[C@H]5C3
[8]
  T/C: 97 % of control
[9]
  T/C: 99 % of control
dose: 200.0 mg/kg/injection, schedule: Q01DX005 (ip), vehicle: saline with Tween-80
  T/C: 100 % of control

## O=C(Nc1ccc(C2=NCC(O)CN2)cc1)c1ccc(C(=O)Nc2ccc(C3=NCC(O)CN3)cc2)cc1 (centres undefined)
dose: 1.56 mg/kg/injection, schedule: Q01DX005 (ip), vehicle: saline with Tween-80
  T/C: 122 % of control
dose: 6.25 mg/kg/injection, schedule: Q01DX005 (ip), vehicle: saline with Tween-80
  T/C: 155 % of control

## Cc1ccc(C)n1-n1nnnc1N
[8]
  T/C: 101 % of control
[9]
  T/C: 100 % of control

## Cc1cc(C)c([N+](=O)[O-])c([N+](=O)[O-])c1C
[3]
  T/C: 101 % of control
[4]
  T/C: 106 % of control
[5]
  T/C: 102 % of control

## O=c1c(O)c(-c2ccccc2)c1=O
[1]
  T/C: 98 % of control
[6]
  T/C: 100 % of control
[7]
  T/C: 98 % of control

## COc1cc(C(C)(C)C)cc(OC)c1Br
[3]
  T/C: 101 % of control
[4]
  T/C: 88 % of control
[5]
  T/C: 90 % of control

## O=C(Nc1ccc(Br)cc1C(F)(F)F)O/N=C(\c1ccccc1)C(O)c1ccccc1 (centres undefined)
[3]
  T/C: 101 % of control
[4]
  T/C: 96 % of control
[5]
  T/C: 100 % of control

## O=C1C(Cl)=C(NC(CO)(CO)CO)C(=O)c2ccccc21
dose: 25.0 mg/kg/injection, schedule: Q01DX001 (ip), vehicle: saline with Tween-80
  T/C: 92 % of control
dose: 50.0 mg/kg/injection, schedule: Q01DX001 (ip), vehicle: saline with Tween-80
  T/C: 93 % of control
dose: 100.0 mg/kg/injection, schedule: Q01DX001 (ip), vehicle: saline with Tween-80
  T/C: 101 % of control

## N=c1nc(N)nc2c3ccccc3nnn12
dose: 15.0 mg/kg/injection, schedule: Q01DX005 (ip), vehicle: saline with Tween-80
  T/C: 109 % of control
dose: 30.0 mg/kg/injection, schedule: Q01DX005 (ip), vehicle: saline with Tween-80
  T/C: 109 % of control
[2]
  T/C: 106 % of control and 109 % of control

## CCOc1ccccc1N=Cc1c2ccccc2cc2ccccc12
dose: 12.5 mg/kg/injection, schedule: Q01DX009 (ip), vehicle: saline with Tween-80
  T/C: 100 % of control
dose: 25.0 mg/kg/injection, schedule: Q01DX009 (ip), vehicle: saline with Tween-80
  T/C: 95 % of control
[3]
  T/C: 98 % of control and 86 % of control
[4]
  T/C: 89 % of control
